Assays:
[1] = Reducing activity of the stable radical DPPH; format: biochemical
Procedure: The novel derivatives were studied for their interaction with the sTable 2,2-diphenyl-1-picrylhydrazyl free radical (DPPH)at concentration 50 µM, 100 µM and 200 µM after 20 and 60 min (Table 2). In this assay the DPPH radical is reduced transferring one electron from the antioxidant. Phenolic compounds such as catechol and derivatives generate phenoxide anions with strong antioxidant capacity. Nordihydroguaretic acid (NDGA), the reference compound acts by this mechanism. Compound 10 presents the highest scavenging activity at 100 µM after 20 min correlated with the presence of the phenolic OH. Compounds 3, 4, 5, 7 presented medium activities depending from time and concentration. The presence of the heteroatom O or S seems to influence the activity e.g., derivatives 1, 2, and 3. Replacement of phenyl ring (4) by a thienyl group (1) decreases antioxidant behavior. […] On the contrary the presence of the furyl ring (3) enhances reduction. Additionally, the presence of a π-dimethyl-amino group 6 reduces the scavenging ability whereas its absence in (5), increases the activity. The presence of two conjugated double bonds (5) leads to lower activity compared to the simpler compound 4. Compounds 9 and 10 present the highest milogP values (5.94). Both include a phenolic hydrogen in their structure. […] On the contrary in compound 9 steric reasons are possible to lead to a decrease. Lipophilicity seems to influence the interaction of compound 10.
To a solution of DPPH in absolute ethanol an equal volume of the compounds with final concentrations of 50, 100 and 200 µM from a stock solution of 10 mM (in 1% DMSO and ethanol) was added. After 20 and 60 min the absorbance was recorded at 517 nm at room temperature (Table 2).

[2] = ABTS+. decolorization assay; format: biochemical; settings: 1 min, no = no action under the experimental conditions
Excerpt: The radical cation ABTS^+• is directly generated through potassium persulfate by oxidation with no participation of an intermediary radical and then the reduction is followed by adding electron-donating antioxidants. In this assay the radical is generated before adding the antioxidant (decolorization assay). […] It seems that lipophilicity influences the activity, since both are presenting high lipophilicity values. […] The radical cation ABTS^+• was generated from an ABTS stock solution in water (7 mM) which was mixed with potassium persulfate (2.45 mM) and left in the dark at room temperature for 12–16 h before use. The results are recorded after 1min of the mixing solutions at 734 nm and compared to the appropriate standard inhibitor Trolox (Table 3).

[3] = system: carrageenin-induced rat paw edema; test: Inhibition of the carrageenin-induced rat paw edema (CPE); format: in vivo, Fisher 344 rats; settings: 0.01 mmol/kg body weight, intraperitoneally, 3.5 h after carrageenin; for inhibition in vivo at 10 µmol/kg: Rattus norvegicus, ip, read-out: CPE % (reduction of the rat paw edema)
Excerpt: Carrageenin-induced rat paw edema (CPE) model was used to study the in vivo anti-inflammatory activity of the tested derivatives and the results are presented in Table 3. […] Compounds 2, 7, 8, 10, and 12 presented small differences in their biological activity. The presence of the thienyl group as well as of the furyl leads to higher anti-inflammatory activity (1 and 3) while substitution with a phenyl group leads to two-fold decrease of the activity (28%).
Edema was induced in the right hind paw of Fisher 344 rats (150–200 g) by the intradermal injection of 0.1 mL 2% carrageenin in water. Both sexes were used while females pregnant were excluded. Each group was composed of 6–15 animals. The animals, which have been bred in our laboratory, were housed under standard conditions and received a diet of commercial food pellets and water ad libitum during the maintenance but they were entirely fasted during the experiment period. Our studies were in accordance with recognised guidelines on animal experimentation. (guidelines for the care and use of laboratory animals published by the Greek Government 160/1991, based on EU regulations 86/609). Rats were kept in the Centre of the School of Veterinary Medicine (EL54 BIO42), Aristotle University of Thessaloniki, which is registered by the official state veterinary authorities (presidential degree 56/2013, in harmonization with the European Directive 2010/63/EEC). The experimental protocols were approved by the Animal Ethics Committee of the Prefecture of Central Macedonia (no. 270079/2500). The tested compounds 0.01 mmol/kg body weight were suspended in water, with a few drops of Tween 80 and ground in a mortar before use and were given intraperitoneally simultaneously with the carrageenin injection. The rats were euthanized 3.5 h after carrageenin injection. The difference between the weight of the injected and uninjected paws was calculated for each animal. The change in paw weight was compared with that in control animals (treated with water) and expressed as a percent inhibition of the edema CPE % values […] [58, 59]. Indomethacin in 0.01 mmol/kg (47%). Values CPE % are the mean from two different experiments with a standard error of the mean less than 10% (Table 3).

bovine thrombin = biological target: T1, bovine thrombin (Bos taurus, UniProt P00735); test: In vitro inhibition of thrombin; format: biochemical; settings: substrate tosyl-Gly-Pro-Arg-pNA, no = no action under the experimental conditions; for inhibition at 100 µM: read-out: TH% 100 µM (thrombin inhibition)
T1 construct: purchased Sigma Chemical, Co. (St. Louis)
Procedure: It is well known that indandione derivatives exert their anticoagulant activity indirectly by inhibiting prothrombin synthesis in the liver. […] Derivatives 1, 2, 5, 8, 9, 10, and 12 were tested in vitro as possible thrombin inhibitors. Among the tested derivatives compound 8 presented 100% inhibition followed by compounds […] and 10.
As a substrate tosyl-Gly-Pro-Arg-pNA acetate salt was used at 1 mM final concentration. Compounds were dissolved at a final concentration of […] in a Tris-buffer (0.05 M Tris, 0.154 M NaCl, ethanol 5%, pH = 8.0). Three minutes after the addition of bovine thrombin (2.5 unit/mg), the reaction was ended by adding 1 mL acetic acid 50%. The absorption of the released p-nitro-aniline was measured at 405 nm (Table 3). Warfarin and Inogatran were used as reference compounds.

O=C1C(=Cc2c[nH]c3ccccc23)C(=O)c2ccccc21 [Compound 12, (Z)-2-((1H-indol-3-yl)methylene)-1H-indene-1,3(2H)-dione]
RA% 50 µM 20 min [1]: 3% | RA% 50 µM 60 min [1]: 3% | RA% 100 µM 20 min [1]: 17% | RA% 100 µM 60 min [1]: 17% | RA% 200 µM 20 min [1]: 4% | RA% 200 µM 60 min [1]: 6% | ABTS+. % 100 µM (decolorization activity) [2]: no | inhibition in vivo at 10 µmol/kg [3]: 42%

CN(C)c1ccc(/C=C\C=C2C(=O)c3ccccc3C2=O)cc1 [Compound 6, (Z)-2-(3-(4-(dimethylamino)phenyl)allylidene)-1H-indene-1,3(2H)-dione]
RA% 50 µM 20 min [1]: 6% | RA% 50 µM 60 min [1]: 6% | RA% 100 µM 20 min [1]: 22% | RA% 100 µM 60 min [1]: 23% | RA% 200 µM 20 min [1]: 15% | RA% 200 µM 60 min [1]: 18% | ABTS+. % 100 µM (decolorization activity) [2]: 22% | inhibition at 100 µM (bovine thrombin): 19%

O=C1C(=Cc2ccc(OCc3ccc(Br)cc3)cc2)C(=O)c2ccccc21 [Compound 8, (Z)-2-(4-((4-bromobenzyl)oxy)benzylidene)-1H-indene-1,3(2H)-dione]
RA% 50 µM 20 min [1]: 4% | RA% 50 µM 60 min [1]: 5% | RA% 100 µM 20 min [1]: 7% | RA% 100 µM 60 min [1]: 7% | RA% 200 µM 20 min [1]: 0% | RA% 200 µM 60 min [1]: 0% | ABTS+. % 100 µM (decolorization activity) [2]: 16% | inhibition at 100 µM (bovine thrombin): 100% | CPE % (reduction of the rat paw edema) [3]: 46% | inhibition in vivo at 10 µmol/kg [3]: 46%

Cc1ccc(C=C2C(=O)c3ccccc3C2=O)o1 [Compound 3, (Z)-2-((5-methylfuran-2-yl)methylene)-1H-indene-1,3(2H)-dione]
RA% 50 µM 20 min [1]: 20% | RA% 50 µM 60 min [1]: 23% | RA% 100 µM 20 min [1]: 37% | RA% 100 µM 60 min [1]: 40% | RA% 200 µM 20 min [1]: 61% | RA% 200 µM 60 min [1]: 75% | ABTS+. % 100 µM (decolorization activity) [2]: 20% | inhibition at 100 µM (bovine thrombin): 39% | inhibition in vivo at 10 µmol/kg [3]: 50%

CC(C)(C)c1cc(C=C2C(=O)c3ccccc3C2=O)c(O)c(C(C)(C)C)c1 [Compound 9, (Z)-2-(3,5-di-tert-butyl-2-hydroxybenzylidene)-1H-indene-1,3(2H)-dione]
RA% 50 µM 20 min [1]: 4% | RA% 50 µM 60 min [1]: 3% | RA% 100 µM 20 min [1]: 3% | RA% 100 µM 60 min [1]: 1% | RA% 200 µM 20 min [1]: 6% | RA% 200 µM 60 min [1]: 6% | ABTS+. % 100 µM (decolorization activity) [2]: no | inhibition at 100 µM (bovine thrombin): 0%

O=C1C(=Cc2ccccc2)C(=O)c2ccccc21 [Compound 4, 2-benzylidene-1H-indene-1,3(2H)-dione]
RA% 50 µM 20 min [1]: 5% | RA% 50 µM 60 min [1]: 10% | RA% 100 µM 20 min [1]: 26% | RA% 100 µM 60 min [1]: 32% | RA% 200 µM 20 min [1]: 23% | RA% 200 µM 60 min [1]: 32% | ABTS+. % 100 µM (decolorization activity) [2]: 19% | TH% 100 µM (thrombin inhibition) (bovine thrombin): no | inhibition in vivo at 10 µmol/kg [3]: 28%

O=C1C(=Cc2cccc(Oc3ccccc3)c2)C(=O)c2ccccc21 [Compound 7, (Z)-2-(3-phenoxybenzylidene)-1H-indene-1,3(2H)-dione]
RA% 50 µM 20 min [1]: 27% | RA% 50 µM 60 min [1]: 35% | RA% 100 µM 20 min [1]: 40% | RA% 100 µM 60 min [1]: 50% | RA% 200 µM 20 min [1]: 75% | RA% 200 µM 60 min [1]: 85% | ABTS+. % 100 µM (decolorization activity) [2]: 37% | TH% 100 µM (thrombin inhibition) (bovine thrombin): no | CPE % (reduction of the rat paw edema) [3]: 41% | inhibition in vivo at 10 µmol/kg [3]: 41%

Cc1ccsc1C=C1C(=O)c2ccccc2C1=O [Compound 2, (Z)-2-((3-methylthiophen-2-yl)methylene)-1H-indene-1,3(2H)-dione]
RA% 50 µM 20 min [1]: 2% | RA% 50 µM 60 min [1]: 2% | RA% 100 µM 20 min [1]: 16% | RA% 100 µM 60 min [1]: 16% | RA% 200 µM 20 min [1]: 4% | RA% 200 µM 60 min [1]: 7% | ABTS+. % 100 µM (decolorization activity) [2]: 2% | inhibition in vivo at 10 µmol/kg [3]: 45%

CC(C)(C)c1cc(C=C2C(=O)c3ccccc3C2=O)cc(C(C)(C)C)c1O [Compound 10, (Z)-2-(3,5-di-tert-butyl-4-hydroxybenzylidene)-1H-indene-1,3(2H)-dione]
RA% 50 µM 20 min [1]: 13% | RA% 50 µM 60 min [1]: 17% | RA% 100 µM 20 min [1]: 100% | RA% 100 µM 60 min [1]: 85% | RA% 200 µM 20 min [1]: 71% | RA% 200 µM 60 min [1]: 71% | ABTS+. % 100 µM (decolorization activity) [2]: 39% | inhibition at 100 µM (bovine thrombin): 27% | inhibition in vivo at 10 µmol/kg [3]: 42%
